# Source: a melting point compilation (Tetko et al.; mined from patent text by program, amines drawn as free bases though some values may be those of a salt)
row,Compound,melting point
1,CC(=O)Nc1nc2c(ncn2CCC(CO)CO)c(=O)[nH]1,143 to 146 °C
2,O=c1cc(Oc2ccc([N+](=O)[O-])cc2)cc[nH]1,227 to 228 °C
3,Clc1cccc(Nc2ncc3cc4ccccc4n3n2)c1,174 to 176 °C
4,Cc1cccc(NC(=O)NCC(=O)N(CC(=O)NCC2CC2)c2ccccc2)c1,168 °C
5,O=C1C(Cc2ccccc2)NC(=S)N1c1nc2ccc(F)cc2s1 (stereo not given),223 to 224 °C
6,N#CN(c1ccccc1)c1nc(N(C#N)c2ccccc2)nc(N(C#N)c2ccccc2)n1,209 to 215 °C
7,C=CCN(CC(N)=O)S(=O)(=O)Cc1cccc(C(F)(F)F)c1,91 to 92 °C
8,COc1ccc(CNc2nc(-c3ccc(C(=O)O)cc3)nc3scc(C)c23)cc1Cl,245 °C
9,FC(F)(F)Oc1ccc(C2NCCc3ccccc32)cc1 (stereo not given),56.6 to 57.1 °C
10,CNCc1ccc2oc(-c3ccccc3C#N)c(Br)c2c1,114 °C
11,CC(=O)OC1CSC(Oc2cnc(-c3ccncc3)c(Cl)c2)C(OC(C)=O)C1OC(C)=O (stereo not given),153 °C
12,CCCC12CCC3=C(CCc4cc(O)ccc43)C1=CCC2=O (stereo not given),149 to 155 °C
13,FS(F)(F)(F)(F)c1cc(Br)cc(S(F)(F)(F)(F)F)c1,65.9 to 66.4 °C
14,CCc1nnc(CCCOc2c(C)cc(-c3noc(C)n3)cc2C)s1,83 to 84 °C
15,CCOC(=O)c1cc2cccc(OC)c2[nH]1,69 to 72 °C
16,FC(F)(F)c1cccc(-n2cnnc2Oc2ccccc2)c1,83 to 85 °C
17,O=S(=O)(c1ccc(F)cc1)N1CCCC1c1ccccc1F (racemic),108 °C
18,CC(=O)c1ccc2c(c1)C(c1ccccc1F)=NC(C)C(=O)N2 (stereo not given),203 °C
19,CC12CC3(C)CC(Br)(C1)CC(Br)(C2)C3,115 to 116 °C
20,CCCCCCCCCCCCCCCCOCCO,42 to 44 °C

row,Compound,melting point
1,COc1cc2c(cc1Nc1ncc(Cl)c(Nc3cc(C(N)=O)ccc3OC)n1)CCN(CC(=O)N(C)C)CC2,163 to 174 °C
2,COCC1CN(c2ccc(C3CCC(OCCCCC(N)=O)CC3)cc2)C(=O)O1 (racemic),72 to 74 °C
3,O=C(Nc1cccc(Br)c1)c1ccccc1SSc1ccccc1C(=O)Nc1cccc(Br)c1,194 to 196 °C
4,COc1cc2c3ccc(OC)c(OC)c3n(C(=O)c3ccc(-c4ccccc4)cc3)c2cc1OC,150 to 153 °C
5,FC(F)c1nc2ccccc2n1-c1nc(-c2cncnc2)cc(N2CCOCC2)n1,209 to 211 °C
6,CC(C)(N)c1ccc(-c2nc(Nc3ccc(F)cc3F)ncc2C#N)cc1,203 °C
7,CC(C)n1nc(-c2cc(C(=O)N3CCN(C)CC3)cnc2-c2ccccc2)ccc1=O,165 to 166 °C
8,COc1ccc(Nc2ccc3c(c2)OCC(=O)N3)cc1,174 to 175 °C
9,CC(=O)Nc1cc([N+](=O)[O-])c(F)cc1Cl,158 to 160 °C
10,C(=C1CSCC2=C1N=C1SCCN1C2c1ccccc1)c1ccccc1 (stereo not given),195 to 196 °C
11,Nc1ccc2c3c(cccc13)C(=O)N(C1CCN(Cc3ccccc3)CC1)C2=O,226 to 228 °C
12,CCOC(=O)c1ccc2[nH]ccc2c1,94 to 95 °C
13,O=c1[nH]c2cc(Sc3cccc4cnccc34)c([N+](=O)[O-])cc2[nH]1,> 270 °C
14,CS(=O)(=O)c1ccc(C(=O)c2cc(-c3ccc(Cl)cc3)c(N3CCOCC3)s2)cc1,242 to 243 °C
15,CC(C)(O)c1ccc(CNC(=O)c2cccnc2Oc2ccc3c(c2)OCO3)cc1,118 to 120 °C
16,COc1ccccc1N1CCN(CCn2c(=O)c3sccc3n(C(C)=O)c2=O)CC1,156 to 158 °C
17,NCCOCC(O)c1cccc2ccccc12 (stereo not given),89.5 to 92 °C
18,O=c1cc(N2CCOCC2)oc2cc(OCc3ccccc3)ccc12,170 to 172 °C
19,CCC1NC(=O)N(C)C(=O)N1,202 to 203 °C
20,CCCCCCC1=CC(O)(C(Br)Br)N(c2ccccc2)C1=O (stereo not given),43 to 45 °C
